From patent US12679878B2, “CRF2 receptor agonists and their use in therapy” (SANOFI, priority 2020, dated 2026)
Starred links: 1 amine or outer side, 2 acyl side, 3 side chain; linkers in the order of their positions; H or OH if unused. Non-standard residues stand in square brackets, D forms with d. Residues, ends and D or L forms follow the SMILES beside them. Groups on a side chain read outwards from the residue. *: point of attachment. C16 diacid = O=C(O)CCCCCCCCCCCCCCC(=O)*; γGlu = O=C(O)[C@H](CCC(=O)[*:2])N[*:1]; Palmitoyl = CCCCCCCCCCCCCCCC(=O)*; Aib = CC(C)(N)C(=O)O

Tests used:
CRF1R receptor = molecular target: T1, CRF1R receptor (Homo sapiens, UniProt P34998); test: cAMP activity at anti-target CRF1R, CHO-K1 cell line clone 2 (Example 19.10); format: cell-based; conditions: for CRF1/CRF2 ratio: ratio of CRF1 EC50 to CRF2 EC50
T1 construct: host or cells: CHO-K1 clone 2
T1 sequence (P34998 24-415): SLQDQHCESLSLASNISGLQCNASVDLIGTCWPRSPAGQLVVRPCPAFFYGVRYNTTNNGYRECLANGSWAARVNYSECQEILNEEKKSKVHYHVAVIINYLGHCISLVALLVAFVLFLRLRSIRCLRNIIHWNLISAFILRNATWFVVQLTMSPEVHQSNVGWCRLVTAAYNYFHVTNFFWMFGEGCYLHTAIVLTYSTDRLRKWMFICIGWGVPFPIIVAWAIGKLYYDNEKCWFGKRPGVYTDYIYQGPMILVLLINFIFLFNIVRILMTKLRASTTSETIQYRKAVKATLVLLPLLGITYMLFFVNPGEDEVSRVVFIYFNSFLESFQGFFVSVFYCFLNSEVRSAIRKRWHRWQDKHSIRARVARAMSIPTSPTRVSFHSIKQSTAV
Method in brief: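 A CRF1R-overexpressing CHO-K1 line (clone 2) was grown in F12/10% FBS/G418 and frozen in aliquots before use. The cAMP assay followed the preceding procedure, with 100% activation defined by Sauvagine at 100 nM.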

human CRF2α receptor = molecular target: T2, human CRF2α receptor (Homo sapiens, UniProt Q13324); test: cAMP agonism at human CRF2α receptor in TeloHEAC cells, FA modified peptides (Example 19.9); format: cell-based; conditions: 0% HSA, relative to urocortin 2
T2 construct: expressed in transfected cells; host or cells: TeloHEAC
T2 sequence (Q13324 1-411): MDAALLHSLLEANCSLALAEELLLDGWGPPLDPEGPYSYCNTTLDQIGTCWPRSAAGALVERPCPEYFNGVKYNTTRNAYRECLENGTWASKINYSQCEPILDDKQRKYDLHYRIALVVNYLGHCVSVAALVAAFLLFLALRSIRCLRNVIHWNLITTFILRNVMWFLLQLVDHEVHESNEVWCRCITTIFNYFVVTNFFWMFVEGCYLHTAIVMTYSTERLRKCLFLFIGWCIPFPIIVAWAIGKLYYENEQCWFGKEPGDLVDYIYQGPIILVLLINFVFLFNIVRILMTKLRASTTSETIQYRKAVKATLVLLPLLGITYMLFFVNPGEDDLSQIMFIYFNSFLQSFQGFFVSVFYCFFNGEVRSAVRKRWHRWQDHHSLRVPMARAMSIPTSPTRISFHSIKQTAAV
Method in brief: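 Efficacy and EC50 are referenced to 100 nM urocortin 2 as 100%, with cAMP measured as the 665/620 nm HTRF ratio after 1 h at room temperature. Compounds (0.5 mM DMSO stock, 16 twofold dilutions) acted 30 min at 37 °C on CRF2α-expressing TeloHEAC cells, buffer containing IBMX and 0% or 0.2% HSA.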

| CRF1/CRF2 ratio (CRF1R receptor) | EC50 (human CRF2α receptor) | EC50 (CRF1R receptor; 0% HSA, CRF1R CHO-K1 clone 2, read-out: EC50 [nM] 0% HSA) | Emax (CRF1R receptor; 100% = Sauvagine at 100 nM, CRF1R CHO-K1 clone 2) | SMILES |
| --- | --- | --- | --- | --- |
| 4 | 1.58 nM | – | – | CCCCCCCCCCCCCCCC(=O)N[C@@H](CCC(=O)NCCCC[C@H](NC(=O)[C@H](CC(C)C)NC(=O)CNC(=O)[C@@H](NC(=O)[C@@H]1CCCN1C(=O)[C@H](NC(=O)[C@H](CC(=O)O)NC(=O)[C@H](CC(C)C)NC(=O)[C@H](CO)NC(=O)[C@H](CC(C)C)NC(=O)[C@@H](NC(=O)[C@@H](N)[C@@H](C)CC)C(C)C)C(C)C)[C@@H](C)CC)C(=O)N[C@@H](CCC(N)=O)C(=O)N[C@H](C(=O)N[C@@H](CC(C)C)C(=O)N[C@@H](CC(C)C)C(=O)N[C@@H](CCCCN)C(=O)N[C@@H](CCC(N)=O)C(=O)N[C@@H](CCC(=O)O)C(=O)N[C@@H](CCCNC(=N)N)C(=O)N[C@@H](CCC(N)=O)C(=O)N[C@@H](CCCCN)C(=O)N[C@@H](CCCCN)C(=O)NC(C)(C)C(=O)N[C@@H](CCCNC(=N)N)C(=O)N[C@@H](CCC(=O)O)C(=O)N[C@@H](CCC(N)=O)C(=O)N[C@@H](C)C(=O)N[C@@H](CCC(=O)O)C(=O)N[C@@H](CCCCN)C(=O)N[C@@H](CC(N)=O)C(=O)N[C@@H](CCCCN)C(=O)N[C@@H](CCCNC(=N)N)C(=O)N[C@H](C(=O)N[C@@H](CC(C)C)C(=O)N[C@@H](CCC(=O)O)C(=O)N[C@@H](CCCNC(=N)N)C(=O)N[C@H](C(N)=O)C(C)C)[C@@H](C)CC)[C@@H](C)CC)C(=O)O [compound 218] (H-IVLSLD[dV]PIGLK([γGlu-Palmitoyl])QILLKQERQKK[Aib]REQAEKNKRILERV-NH2) |
| 2 | 5.98 nM | – | – | CCCCCCCCCCCCCCCC(=O)N[C@@H](CCC(=O)NCCCC[C@H](NC(=O)[C@H](CC(C)C)NC(=O)[C@H](CCCCN)NC(=O)[C@@H](NC(=O)[C@@H]1CCCN1C(=O)[C@H](NC(=O)[C@H](CC(=O)O)NC(=O)[C@H](CC(C)C)NC(=O)[C@H](CO)NC(=O)[C@H](CC(C)C)NC(=O)[C@@H](NC(=O)[C@@H](N)[C@@H](C)CC)C(C)C)C(C)C)[C@@H](C)CC)C(=O)N[C@@H](CCC(N)=O)C(=O)N[C@H](C(=O)N[C@@H](CC(C)C)C(=O)N[C@@H](CC(C)C)C(=O)N[C@@H](CCCCN)C(=O)N[C@@H](CCC(N)=O)C(=O)N[C@@H](C)C(=O)N[C@@H](CCCNC(=N)N)C(=O)N[C@@H](CCC(N)=O)C(=O)N[C@@H](CCCCN)C(=O)NC(C)(C)C(=O)N[C@@H](CCC(N)=O)C(=O)N[C@@H](CCCNC(=N)N)C(=O)N[C@@H](C)C(=O)N[C@@H](CCC(N)=O)C(=O)N[C@@H](C)C(=O)N[C@@H](CCC(=O)O)C(=O)N[C@@H](CCCCN)C(=O)N[C@@H](CC(N)=O)C(=O)N[C@@H](CCCCN)C(=O)N[C@@H](CCCNC(=N)N)C(=O)N[C@H](C(=O)N[C@@H](CC(C)C)C(=O)N[C@@H](CCC(=O)O)C(=O)N[C@@H](CCCNC(=N)N)C(=O)N[C@H](C(N)=O)C(C)C)[C@@H](C)CC)[C@@H](C)CC)C(=O)O [compound 219] (H-IVLSLD[dV]PIKLK([γGlu-Palmitoyl])QILLKQARQK[Aib]QRAQAEKNKRILERV-NH2) |
| 6 | 1.48 nM | – | – | CCCCCCCCCCCCCCCC(=O)N[C@@H](CCC(=O)NCCCC[C@H](NC(=O)[C@H](CC(C)C)NC(=O)CNC(=O)[C@@H](NC(=O)[C@@H]1CCCN1C(=O)[C@H](NC(=O)[C@H](CC(=O)O)NC(=O)[C@H](CC(C)C)NC(=O)[C@H](CO)NC(=O)[C@H](CC(C)C)NC(=O)[C@@H](NC(=O)[C@@H](N)[C@@H](C)CC)C(C)C)C(C)C)[C@@H](C)CC)C(=O)N[C@@H](CCC(N)=O)C(=O)N[C@H](C(=O)N[C@@H](CC(C)C)C(=O)N[C@@H](CC(C)C)C(=O)N[C@@H](CCCCN)C(=O)N[C@@H](CCC(N)=O)C(=O)N[C@@H](CCC(=O)O)C(=O)N[C@@H](CCCNC(=N)N)C(=O)N[C@@H](CCC(N)=O)C(=O)N[C@@H](CCCCN)C(=O)N[C@@H](CCCCN)C(=O)NC(C)(C)C(=O)N[C@@H](CCCNC(=N)N)C(=O)N[C@@H](CCC(N)=O)C(=O)N[C@@H](CCC(N)=O)C(=O)N[C@@H](C)C(=O)N[C@@H](CCC(=O)O)C(=O)N[C@H](C(=O)N[C@@H](CC(N)=O)C(=O)N[C@@H](CCCCN)C(=O)N[C@@H](CCCNC(=N)N)C(=O)N[C@H](C(=O)N[C@@H](CC(C)C)C(=O)N[C@@H](CCC(=O)O)C(=O)N[C@@H](CCCNC(=N)N)C(=O)N[C@H](C(N)=O)C(C)C)[C@@H](C)CC)[C@@H](C)O)[C@@H](C)CC)C(=O)O [compound 220] (H-IVLSLD[dV]PIGLK([γGlu-Palmitoyl])QILLKQERQKK[Aib]RQQAETNKRILERV-NH2; N-terminus assumed) |

Second part, the molecule before the results:

| SMILES | CRF1/CRF2 ratio (CRF1R receptor) | EC50 (human CRF2α receptor) | EC50 (CRF1R receptor; 0% HSA, CRF1R CHO-K1 clone 2, read-out: EC50 [nM] 0% HSA) | Emax (CRF1R receptor; 100% = Sauvagine at 100 nM, CRF1R CHO-K1 clone 2) |
| --- | --- | --- | --- | --- |
| CCCCCCCCCCCCCCCC(=O)N[C@@H](CCC(=O)NCCCC[C@H](NC(=O)[C@H](CC(C)C)NC(=O)[C@H](CCCCN)NC(=O)[C@@H](NC(=O)[C@@H]1CCCN1C(=O)[C@H](NC(=O)[C@H](CC(=O)O)NC(=O)[C@H](CC(C)C)NC(=O)[C@H](CO)NC(=O)[C@H](CC(C)C)NC(=O)[C@@H](NC(=O)[C@@H](N)[C@@H](C)CC)C(C)C)C(C)C)[C@@H](C)CC)C(=O)N[C@@H](CCC(N)=O)C(=O)N[C@H](C(=O)N[C@@H](CC(C)C)C(=O)N[C@@H](CC(C)C)C(=O)N[C@@H](CCCCN)C(=O)N[C@@H](CCC(N)=O)C(=O)N[C@@H](CCC(=O)O)C(=O)N[C@@H](CCCNC(=N)N)C(=O)N[C@@H](CCC(N)=O)C(=O)N[C@@H](CCCCN)C(=O)N[C@@H](CCCCN)C(=O)N[C@@H](CCC(N)=O)C(=O)N[C@@H](CCCNC(=N)N)C(=O)N[C@@H](CCC(N)=O)C(=O)N[C@@H](CCC(N)=O)C(=O)N[C@@H](C)C(=O)N[C@@H](CCC(=O)O)C(=O)N[C@@H](CCCCN)C(=O)N[C@@H](CC(N)=O)C(=O)N[C@@H](CCCCN)C(=O)N[C@@H](CCC(N)=O)C(=O)N[C@H](C(=O)N[C@@H](CC(C)C)C(=O)N[C@@H](C)C(=O)N[C@@H](CCC(N)=O)C(=O)N[C@H](C(N)=O)C(C)C)[C@@H](C)CC)[C@@H](C)CC)C(=O)O [compound 214] (H-IVLSLD[dV]PIKLK([γGlu-Palmitoyl])QILLKQERQKKQRQQAEKNKQILAQV-NH2; N-terminus assumed) | 1 | 4.15 nM | – | – |
| CC[C@H](C)[C@H](N)C(=O)N[C@H](C(=O)N[C@@H](CC(C)C)C(=O)N[C@@H](CO)C(=O)N[C@@H](CC(C)C)C(=O)N[C@@H](CC(=O)O)C(=O)N[C@@H](C(=O)N1CCC[C@H]1C(=O)N[C@H](C(=O)N[C@@H](CCCCN)C(=O)N[C@@H](CC(C)C)C(=O)N[C@@H](CCCCNC(=O)CC[C@H](NC(=O)CCCCCCCCCCCCCCC(=O)O)C(=O)O)C(=O)N[C@@H](CCC(N)=O)C(=O)N[C@@H](CCCCN)C(=O)N[C@@H](CC(C)C)C(=O)N[C@@H](CC(C)C)C(=O)N[C@@H](CCCCN)C(=O)N[C@@H](CCC(N)=O)C(=O)N[C@@H](CCC(=O)O)C(=O)N[C@@H](CCCNC(=N)N)C(=O)N[C@@H](CCC(N)=O)C(=O)N[C@@H](CCCNC(=N)N)C(=O)N[C@@H](CCCCN)C(=O)N[C@@H](CCC(=O)O)C(=O)N[C@@H](CCCNC(=N)N)C(=O)N[C@@H](CCC(=O)O)C(=O)N[C@@H](CCC(N)=O)C(=O)N[C@@H](C)C(=O)N[C@@H](CCC(=O)O)C(=O)N[C@@H](CCCCN)C(=O)N[C@@H](CC(N)=O)C(=O)N[C@@H](C)C(=O)N[C@@H](CCCNC(=N)N)C(=O)N[C@H](C(=O)N[C@@H](CC(C)C)C(=O)N[C@@H](C)C(=O)N[C@@H](CCCNC(=N)N)C(=O)N[C@H](C(N)=O)C(C)C)[C@@H](C)CC)[C@@H](C)O)C(C)C)C(C)C [compound 221] (H-IVLSLD[dV]PTKLK([γGlu-C16 diacid])QKLLKQERQRKEREQAEKNARILARV-NH2; N-terminus assumed) | – | 2.71 nM | > 100 nM | 3.2% |
